Structures are written as SMILES.

Series [1] has as its system Isolated rat hearts. Kind of series: Example 2: infarct size after ischemia/reperfusion, different set of isolated rat hearts. The settings on record: same protocol as AS in Example 1, only one rat heart per intervention, FIG. 5. As for the experimental part:
FIG. 5 is a graph showing infarct size following 30 min of global ischemia and 30 min reperfusion for interventions in a different set of isolated rat hearts for interventions with control; ischemic preconditioning (IP); IPA/NO; AS; and DEA/NO.
To corroborate the data relative to myocardial injury, determined by LDH release, infarct areas were also assessed in a blinded fashion. At the end of the course (30 min reperfusion), each heart was rapidly removed from the perfusion apparatus, and the LV dissected into 2-3 mm circumferential slices. Following 15 min of incubation at 37° C. in 0.1% solution of nitro blue tetrazolium in phosphate buffer as described in Ma et al., “Opposite effects of nitric oxide and nitroxyl on postischemic myocardial injury,” Proc. Natl. Acad. Sci., 96:14617-14622 (1999), unstained necrotic tissue was separated from the stained viable tissue. The areas of viable and necrotic tissue were carefully separate by and independent observer (D. Mancardi, C. Penna, or R. Rastaldo) who was not aware of the origin of the hearts. The weight of the necrotic and non-necrotic tissues was then determined and the necrotic mass expressed as a percentage of total left ventricular mass.
The same methods as employed in Example 1 were used to assess the ischemia/reperfusion injury reducing effects of the nitroxyl donor IPA/NO. […]

For a further series, the system named is isolated rat heart. Nature of the series: Example 2: coronary perfusion pressure during reperfusion. The settings on record: FIG. 6. As for the experimental part:
FIG. 6 is a graph showing the coronary perfusion pressures for the IPA/NO intervention of FIG. 5 and an intervention in an isolated rat heart with a vehicle for the same protocol as was used with AS and vehicle in FIG. 1. IPA/NO is represented by diamonds; vehicle is represented by squares.
Isolated heart perfusion. Each animal was anesthetized with 1 g/kg urethane i.p. 10 min after heparin (2,500 U, i.m.) treatment. The chest was opened, and the heart was rapidly excised, placed in ice-cold buffer solution and weighed. Isolated rat hearts were attached to the perfusion apparatus and retrogradely perfused with oxygenated buffer solution at 37° C. The hearts were instrumented as previously described in Rastaldo et al., “P-450 metabolite of arachidonic acid mediates bradykinin-induced negative inotropic effect,” Am. […] Coronary perfusion pressure (CPP) and coronary flow were monitored with a second electromanometer and an electromagnetic flow-probe, respectively, both placed along the perfusion line. Left ventricular pressure, coronary flow and coronary perfusion pressure were recorded using a TEAC R-71 recorder, digitized at 1000 Hz and analyzed off-line with DataQ-Instruments/CODAS software, which allowed quantification of the maximum rate of increase of LVP during systole (dP/dtmax). […]

The next series is described as follows: Nitroxyl donation pH. Format: physicochemical. The conditions noted are these: donates from this pH to about 10. The text has this: “Nitroxyl donation pH” is the pH at which and above which a nitroxyl-donating compound donates nitroxyl.
Further, compounds are easily tested for nitroxyl donation with routine experiments. Although it is impractical to directly measure whether nitroxyl is donated, several tests are accepted for determining whether a compound donates nitroxyl. For example, the compound of interest can be placed in solution, for example in water, in a sealed container. After sufficient time for disassociation has elapsed, such as from several minutes to several hours, the headspace gas is withdrawn and analyzed to determine its composition, such as by gas chromatography and/or mass spectroscopy. […] Nitroxyl donation also can be detected by exposing the target donor to metmyoglobin (Mb^3+). Nitroxyl reacts with Mb^3+ to form an Mb^2+-NO complex, which can be detected by changes in the ultraviolet/visible spectrum or by Electron Paramagnetic Resonance (EPR). […]
Testing for nitroxyl donation in some cases is performed at a range of pHs to determine the nitroxyl donation pH of the nitroxyl-donating compound. […] After the lowest pH at which nitroxyl donation occurs in a first set of tests is found, additional tests can be performed with narrower ranges of pH around the first determined nitroxyl donation pH to obtain a more specific nitroxyl donation pH. […]

The subject of series [2] is Isolated rat hearts. Kind of series: Pre-ischemic cardiac function of isolated perfused rat hearts (Table 1). The conditions noted are these: mean. As for the experimental part:
(§1) Isolated heart perfusion. Each animal was anesthetized with 1 g/kg urethane i.p. 10 min after heparin (2,500 U, i.m.) treatment. The chest was opened, and the heart was rapidly excised, placed in ice-cold buffer solution and weighed. Isolated rat hearts were attached to the perfusion apparatus and retrogradely perfused with oxygenated buffer solution at 37° C. The hearts were instrumented as previously described in Rastaldo et al., “P-450 metabolite of arachidonic acid mediates bradykinin-induced negative inotropic effect,” Am. J. Physiol., 280:H2823-H2832 (2001), and Paolocci et al. “cGMP-independent inotropic effects of nitric oxide and peroxynitrite donors: potential role for nitrosylation,” Am. J. Physiol., 279: H1982-H1988 (2000). The flow was maintained constant (9±2 mL/min/g wet weight) to reach a typical coronary perfusion pressure of 85-90 mm Hg. A constant proportion of 10% of the flow rate was applied by means of one of two perfusion pumps (Terumo, Tokyo, Japan) using a 50 mL syringe connected to the aortic cannula. Drug applications (see Experimental Protocols) were performed by switching from the syringe containing buffer alone to the syringe of the other pump containing the drug dissolved in the vehicle at a concentration 10× to the desired final concentration in the heart. A small hole in the left ventricular wall allowed drainage of the thebesian flow, and a polyvinyl-chloride balloon was placed into the left ventricle and connected to an electromanometer for recording of left ventricular pressure (LVP). The hearts were electrically paced at 280-300 bpm and kept in a temperature-controlled chamber (37° C.). Coronary perfusion pressure (CPP) and coronary flow were monitored with a second electromanometer and an electromagnetic flow-probe, respectively, both placed along the perfusion line. Left ventricular pressure, coronary flow and coronary perfusion pressure were recorded using a TEAC R-71 recorder, digitized at 1000 Hz and analyzed off-line with DataQ-Instruments/CODAS software, which allowed quantification of the maximum rate of increase of LVP during systole (dP/dtmax).
Hearts were perfused with Krebs-Henseleit solution gassed with 95% O2 and 5% CO2 of the following composition: 17.7 mM sodium bicarbonate, 127 mM NaCl, 5.1 mM KCl, 1.5 mM CaCl2, 1.26 mM MgCl2, 11 mM D-glucose, supplemented with 5 μg/mL lidocaine.
(§2) Experimental Protocols. Hearts were allowed to stabilize for 30 min, and baseline parameters were recorded. Typically, coronary flow was adjusted within the first 10 min and kept constant from thereon. After 30 min stabilization, hearts were randomly assigned to one of the treatment groups reported below (n=12 in each group), and then subjected to 30 min global, no-flow ischemia, followed by 30 min of reperfusion (I/R) (see FIG. 1). Pacing of the hearts was stopped at the beginning of the ischemic period and restarted after the third minute of reperfusion.
(§3) Hearts in the control group (Group 1) were perfused with buffer for an additional 29 min after stabilization. Group 2 hearts were exposed to AS (1 μM final concentration) for 19 min followed by a 10 min buffer wash-out period. Group 3 hearts were exposed to DEA/NO (0.5 μM final concentration) administered in the same manner as AS. The concentration of DEA/NO was only one half of that of AS since DEA/NO releases up to two moles of […] per mole of donor molecule. In Group 4, a train of three cycles of 3 min global ischemia followed by 5 min of reperfusion was applied after the stabilization phase, followed by a final 10 min buffer wash-out period (IPC protocol).
(§4) Group 5 hearts were exposed to the vehicle (NaOH, final concentration 100 nM) used to dissolve both AS and DEA/NO. To test the influence of switching the myocardial redox state on AS-induced effects, in an additional group of hearts (Group 6) AS was co-infused with N-acetyl-L-cysteine (NAC, 4 mM final concentration). For comparison, hearts were also exposed to NAC alone (Group 7). […]

Series [3] concerns Isolated rat hearts. Nature of the series: Ventricular function (contracture, contractile recovery) of isolated rat hearts in 30 min global ischemia / 30 min reperfusion. As for the experimental part: as §1, §2, §3
Group 5 hearts were exposed to the vehicle (NaOH, final concentration 100 nM) used to dissolve both AS and DEA/NO. […]

For series [4], the system named is Isolated rat hearts. Nature of the series: Myocardial injury: LDH release in coronary effluent during reperfusion. The conditions noted are these: pre-treatment; control 686±14 U/g wet wt; FIG. 4A. As for the experimental part:
as §2
Hearts in the control group (Group 1) were perfused with buffer for an additional 29 min after stabilization. Group 2 hearts were exposed to AS (1 μM final concentration) for 19 min followed by a 10 min buffer wash-out period. Group 3 hearts were exposed to DEA/NO (0.5 μM final concentration) administered in the same manner as AS. The concentration of DEA/NO was only one half of that of AS since DEA/NO releases up to two moles of […] per mole of donor molecule. […]
Assessment of myocardial injury. […] LDH release was measured as previously described by Bergmeyer & Bernt, “Methods of Enzymatic Analysis,” Verlag Chemie (1974). Data are expressed as cumulative values for the entire reflow period.
In general terms: LDH in the medium is a marker of cell lysis.

Series [5] deals with Isolated rat hearts. Kind of series: Myocardial injury: infarct area by nitro blue tetrazolium staining. As for the experimental part:
as §2, §3, §4
To corroborate the data relative to myocardial injury, determined by LDH release, infarct areas were also assessed in a blinded fashion. […] The weight of the necrotic and non-necrotic tissues was then determined and the necrotic mass expressed as a percentage of total left ventricular mass.

Where [6] appears, read: End of stabilization period (baseline of the group, before treatment).
Setting [7] is: Post-treatment (pre-ischemic), AS 1 μM, DEA/NO 0.5 μM, NAC 4 mM, 19 min then 10 min wash-out.

Consider `CC(C)N[N+]([O-])=N[O-].[Na+]` [IPA/NO, isopropylamine/NO], for which the “Infarct size reduction as compared to control” value in the series on Isolated rat hearts [1] is “about 36%”. Moreover, in the series on isolated rat heart, the “Coronary perfusion pressure during reperfusion” value is reported as “returned to normal”. The “Nitroxyl donation pH (pH at and above which nitroxyl is donated)” value in the series “Nitroxyl donation pH” is “about 5.5”.

Take `CCN(CC)/[N+]([O-])=N/O.CCNCC` [DEA/NO, diethylamine diazeniumdiolate]: in the series on Isolated rat hearts [2] (setting [6]), the “CPP (coronary perfusion pressure)” value was 91 mmHg, the DP/dtmax stood at 3047 mmHg/s, the “Developed LVP” value amounted to 98 mmHg and the “LVEDP (left ventricular end-diastolic pressure)” value is on record as 8 mmHg. For the same compound, in the series on Isolated rat hearts [2] (setting [7]), the “CPP (coronary perfusion pressure)” value was found to be 90 mmHg, the DP/dtmax amounted to 2976 mmHg/s, the “Developed LVP” value came out at 99 mmHg and the “LVEDP (left ventricular end-diastolic pressure)” value stood at 9 mmHg. Further, the “Maximal increment of LVEDP during reperfusion” value with Isolated rat hearts [3] (compared to control, vehicle, NAC and NAC+AS treated hearts (p<0.05), FIG. 2B) is recorded as “significantly lower”. Besides, the “Recovering contractile function (developed LVP, dP/dtmax) after ischemia/reperfusion” value in the series on Isolated rat hearts [3] (vs control group, p=0.08 for dP/dtmax, p=0.07 for developed LVP, DEA/NO 0.5 μM) was “less effective”. For the same compound, the “LDH release into the coronary venous effluent during reperfusion” value in the series on Isolated rat hearts [4] was “significantly reduced”. The “Protective effect: infarct size change vs controls” value with Isolated rat hearts [5] (DEA/NO 0.5 μM pre-ischemic, p<0.05 vs controls, weaker than AS or IPC) is listed as −30%.

Turning to `CC(=O)N[C@@H](CS)C(=O)O` [NAC, N-acetyl-L-cysteine], in the series on Isolated rat hearts [2] (setting [6]), the “CPP (coronary perfusion pressure)” value came out at 88 mmHg, the DP/dtmax turned out to be 2760 mmHg/s, the “Developed LVP” value is reported as 89 mmHg and the “LVEDP (left ventricular end-diastolic pressure)” value was 8 mmHg. In addition, in the series on Isolated rat hearts [2] (setting [7]), the “CPP (coronary perfusion pressure)” value turned out to be 88 mmHg, the DP/dtmax came to 2481 mmHg/s, the “Developed LVP” value is 86 mmHg and the “LVEDP (left ventricular end-diastolic pressure)” value turned out to be 10 mmHg. Also, the “Infarcted area, expressed as a percentage of the left ventricle” value in the series on Isolated rat hearts [5] (30 min global ischemia, 30 min reperfusion, control 39±2%, FIG. 4) is listed as 45+2%.

For the origin of these results see patent US20040038947A1, “Method of treating ischemia/reperfusion injury with nitroxyl donors” (The Gov. of the U.S. of America as represented by the Sec. …, priority 2002, published 2004).
